Among the data in patent publication US11571420B2 (priority 2018, dated 2023) are IC50 values, retold here.

Structures are written as SMILES.

The target of this assay is hADORA1/CHO (hA1 expressing) cells (Homo sapiens (Human), UniProt P30542). As to the kind of experiment: FLIPR calcium inhibition assay in hADORA1/CHO (hA1 expressing) cells, 10 M adenosine. It is filed as cell-based. To be noted: read-out: cAMP & FLIPR IC50 (nM) hA1. On the procedure:
hADORA1/CHO (hA1 expressing) cells (Genscript) were plated at 1×10^4 cells/well into 384-well polystyrene plates one day before starting the experiment. On the day of experiment, the supernatant was discard and replaced with 40 μL of dye (FLIPR calcium 5 Assay Kit) per well and the plates were incubated for 60 mins at 37° C. plus 5% CO2. Then testing compounds were added at different concentrations for FLIPR™ inhibition assay. After a 400 s incubation with compound, […] adenosine was added into the cells, and the signal was captured by FLIPR.

Chain of hADORA1/CHO (hA1 expressing) cells (P30542 whole entry): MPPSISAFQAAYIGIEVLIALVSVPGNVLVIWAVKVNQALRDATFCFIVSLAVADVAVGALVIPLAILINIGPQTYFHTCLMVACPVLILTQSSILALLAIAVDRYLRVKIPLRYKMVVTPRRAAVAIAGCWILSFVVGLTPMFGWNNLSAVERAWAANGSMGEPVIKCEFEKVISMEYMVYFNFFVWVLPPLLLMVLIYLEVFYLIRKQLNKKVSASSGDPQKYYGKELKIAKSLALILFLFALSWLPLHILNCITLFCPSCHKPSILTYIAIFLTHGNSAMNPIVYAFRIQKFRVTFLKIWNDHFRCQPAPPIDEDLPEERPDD

As a reminder, the IC50 is the concentration that inhibits the measured activity by half. Regarding `Cc1cnc2ccc(-c3nc(C(=O)NCC4CCCCN4C)c(N)nc3-c3ncco3)cn12` (single isomer, unassigned; isomer 2) [Example 125, 3-amino-6-(3-methylimidazo[1,2-a]pyridin-6-yl)-N-((1-methylpiperidin-2-yl)methyl)-5-(oxazol-2-yl)pyrazine-2-carboxamide (isomer 2)], the IC50 was 10000 nM.
